pEC50: −log10 of the molar value.
molecular target: T1, human GPR119 (Homo sapiens, UniProt Q8TDV5); assay: Functional cellular assay measuring GPR119-mediated cAMP release (HTRF) in HEK-293 cells stably expressing recombinant human GPR119; assay type: cell-based; settings: cAMP response, cell line expressing human GPR119, 30 minutes at room temperature
T1 construct: expressed in transfected cells
T1 sequence (Q8TDV5 1-335): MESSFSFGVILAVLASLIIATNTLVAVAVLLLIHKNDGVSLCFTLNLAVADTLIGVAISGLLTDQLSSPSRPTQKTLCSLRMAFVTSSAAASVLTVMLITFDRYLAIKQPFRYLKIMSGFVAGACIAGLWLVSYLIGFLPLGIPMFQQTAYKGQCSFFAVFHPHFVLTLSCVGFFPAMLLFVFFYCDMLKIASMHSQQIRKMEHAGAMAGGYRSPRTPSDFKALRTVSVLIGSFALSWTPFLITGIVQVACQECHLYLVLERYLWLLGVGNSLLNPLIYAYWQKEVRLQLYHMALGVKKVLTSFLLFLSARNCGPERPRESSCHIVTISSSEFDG
Procedure: Functional Cellular Assays Measuring GPR119-Mediated cAMP Release
Compounds of the invention, which are agonists of GPR119, were characterized by functional assays measuring the cAMP response of HEK-293 cell lines stably expressing recombinant GPR119 from man, mouse or rat, or by using a hamster cell line HIT-T15 expressing GPR119 endogenously. The cAMP content was determined using a kit based on homogenous time-resolved fluorescence (HTRF) from Cisbio Corp. (cat. no. 62AM4PEC). For preparation, cells were split into T175 culture flasks and grown to near confluency in medium (DMEM/10% FCS for HEK-293 cells, and F-12K medium/10% horse serum/2.5% FCS for HIT-T15 cells, respectively). Medium was then removed and cells washed with PBS lacking calcium and magnesium ions, followed by proteinase treatment with accutase (Sigma-Aldrich, cat. no. A6964). Detached cells were washed and resuspended in assay buffer (1×HBSS; 20 mM HEPES, 0.1% BSA, 2 mM IBMX) and cellular density determined. They were then diluted to 400000 cells/mL and 25 μL-aliquots dispensed to the wells of 96-well plates. For measurement, 25 μL of test compound in assay buffer was added and incubated for 30 minutes at room temperature. After addition of HTRF reagents diluted in lysis buffer, the plates were incubated for 1 hour, followed by measuring the fluorescence ratio at 665 vs. 620 nm. Potency of the agonists was quantified by determining the concentrations that caused 50% of the maximal response/activation (EC50). See Table 7 for exemplary data obtained using the cell line expressing human GPR119.

SMILES	pEC50
COC(=O)CN1Cc2ccc(N3CC[C@@H](Oc4ccc(OC5CC5)nc4)C3=O)cc2C1=O [Example 1-22, methyl 2-[6-[(3R)-3-[[6-(cyclopropoxy)-3-pyridyl]oxy]-2-oxo-pyrrolidin-1-yl]-1-oxo-isoindolin-2-yl]acetate]	6.62
CN1Cc2c(F)cc(N3CC[C@@H](Oc4ccc(OCC5CC5)nc4)C3=O)cc2C1=O [Example 1-23, 6-[(3R)-3-[[6-(cyclopropylmethoxy)-3-pyridyl]oxy]-2-oxo-pyrrolidin-1-yl]-4-fluoro-2-methyl-isoindolin-1-one]	6.16
O=C1[C@H](Oc2ccc(OCC3CC3)nc2)CCN1c1ccc2[nH][nH]c(=O)c2c1 [Example 1-24, 5-[(3R)-3-[[6-(cyclopropylmethoxy)-3-pyridyl]oxy]-2-oxo-pyrrolidin-1-yl]-1,2-dihydroindazol-3-one]	4.84
CN(C)C(=O)CN1Cc2ccc(N3CC[C@H](Oc4ccc(OCC5CC5)nc4)C3=O)cc2C1=O [Example 1-25, 2-[6-[(3S)-3-[[6-(cyclopropylmethoxy)-3-pyridyl]oxy]-2-oxo-pyrrolidin-1-yl]-1-oxo-isoindolin-2-yl]-N,N-dimethyl-acetamide]	6.36
CN(C)C(=O)Cn1c(=O)c2cc(N3CC[C@H](Oc4ccc(OCC5CC5)nc4)C3=O)ccc2n1C [Example 1-26, 2-[5-[(3S)-3-[[6-(cyclopropylmethoxy)-3-pyridyl]oxy]-2-oxo-pyrrolidin-1-yl]-1-methyl-3-oxo-indazol-2-yl]-N,N-dimethyl-acetamide]	4.85
CN(C)C(=O)Cn1c(=O)c2cc(N3CC[C@@H](Oc4ccc(OCC5CC5)nc4)C3=O)ccc2n1C [Example 1-27, 2-[5-[(3R)-3-[[6-(cyclopropylmethoxy)-3-pyridyl]oxy]-2-oxo-pyrrolidin-1-yl]-1-methyl-3-oxo-indazol-2-yl]-N,N-dimethyl-acetamide]	6.31
CN(C)C(=O)CN1Cc2ncc(N3CC[C@@H](Oc4ccc(Oc5ccc(F)cc5)nc4)C3=O)cc2C1=O [Example 1-28, 2-[3-[(3R)-3-[[6-(4-fluorophenoxy)-3-pyridyl]oxy]-2-oxo-pyrrolidin-1-yl]-5-oxo-7H-pyrrolo[3,4-b]pyridin-6-yl]-N,N-dimethyl-acetamide]	6.01
CCOC(=O)CN1Cc2ccc(N3CC[C@@H](Oc4ccc(OCC5CC5)nc4)C3=O)cc2C1=O [Example 1-29, ethyl 2-[6-[(3R)-3-[[6-(cyclopropylmethoxy)-3-pyridyl]oxy]-2-oxo-pyrrolidin-1-yl]-1-oxo-isoindolin-2-yl]acetate]	7.82
CCOc1ccc(O[C@@H]2CCN(c3cc(F)c4c(c3)C(=O)N(C(C)(C)C)C4)C2=O)cn1 [Example 1-30, 2-tert-butyl-6-[(3R)-3-[(6-ethoxy-3-pyridyl)oxy]-2-oxo-pyrrolidin-1-yl]-4-fluoro-isoindolin-1-one]	< 4.00
CCOc1ccc(O[C@@H]2CCN(c3cc(F)c4c(c3)C(=O)N(CC(=O)OC)C4)C2=O)cn1 [Example 1-31, methyl 2-[6-[(3R)-3-[(6-ethoxy-3-pyridyl)oxy]-2-oxo-pyrrolidin-1-yl]-4-fluoro-1-oxo-isoindolin-2-yl]acetate]	7.19
COC(=O)CN1Cc2ccc(N3CC[C@@H](Oc4ccc(OCCC5CC5)nc4)C3=O)cc2C1=O [Example 1-32, methyl 2-[6-[(3R)-3-[[6-(2-cyclopropylethoxy)-3-pyridyl]oxy]-2-oxo-pyrrolidin-1-yl]-1-oxo-isoindolin-2-yl]acetate]	7.20
CC(C)(C)N1Cc2c(F)cc(N3CC[C@@H](Oc4ccc(OCC5CC5)nc4)C3=O)cc2C1=O [Example 1-33, 2-tert-butyl-6-[(3R)-3-[[6-(cyclopropylmethoxy)-3-pyridyl]oxy]-2-oxo-pyrrolidin-1-yl]-4-fluoro-isoindolin-1-one]	5.07
COC(=O)CN1Cc2c(F)cc(N3CC[C@@H](Oc4ccc(OCCC5CC5)nc4)C3=O)cc2C1=O [Example 1-35, methyl 2-[6-[(3R)-3-[[6-(2-cyclopropylethoxy)-3-pyridyl]oxy]-2-oxo-pyrrolidin-1-yl]-4-fluoro-1-oxo-isoindolin-2-yl]acetate]	7.72
O=C1c2cc(N3CC[C@@H](Oc4ccc(OCCC5CC5)nc4)C3=O)cc(F)c2CN1CCO [Example 1-36, 6-[(3R)-3-[[6-(2-cyclopropylethoxy)-3-pyridyl]oxy]-2-oxo-pyrrolidin-1-yl]-4-fluoro-2-(2-hydroxyethyl)isoindolin-1-one]	6.85
CN(C)C(=O)CN1Cc2ccc(N3CC[C@@H](Oc4ccc(OC5CC5)nc4)C3=O)cc2C1=O [Example 1-37, 2-[6-[(3R)-3-[[6-(cyclopropoxy)-3-pyridyl]oxy]-2-oxo-pyrrolidin-1-yl]-1-oxo-isoindolin-2-yl]-N,N-dimethyl-acetamide]	5.98
CN(C)C(=O)CN1Cc2ccc(N3CC[C@@H](Oc4ccc(OCCC5CC5)nc4)C3=O)cc2C1=O [Example 1-38, 2-[6-[(3R)-3-[[6-(2-cyclopropylethoxy)-3-pyridyl]oxy]-2-oxo-pyrrolidin-1-yl]-1-oxo-isoindolin-2-yl]-N,N-dimethyl-acetamide]	7.46
CN(C)C(=O)CN1Cc2ccc(N3CC[C@@H](Oc4ccc(OCC5CC5)nc4)C3=O)cc2C1=O [Example 1-39, 2-[6-[(3R)-3-[[6-(cyclopropylmethoxy)-3-pyridyl]oxy]-2-oxo-pyrrolidin-1-yl]-1-oxo-isoindolin-2-yl]-N,N-dimethyl-acetamide]	7.22
COC(=O)CN1Cc2ccc(N3CC[C@@H](Oc4ccc(OCC5CC5)nc4)C3=O)cc2C1=O [Example 1-40, methyl 2-[6-[(3R)-3-[[6-(cyclopropylmethoxy)-3-pyridyl]oxy]-2-oxo-pyrrolidin-1-yl]-1-oxo-isoindolin-2-yl]acetate]	7.36
CN(C)C(=O)c1nc2ccc(N3CC[C@@H](Oc4ccc(OCC5CC5)nc4)C3=O)cc2c(=O)n1C [Example 1-43, 6-[(3R)-3-[[6-(cyclopropylmethoxy)-3-pyridyl]oxy]-2-oxo-pyrrolidin-1-yl]-N,N,3-trimethyl-4-oxo-quinazoline-2-carboxamide]	6.35
CN(C)C(=O)c1nc2ccc(N3CC[C@@H](Oc4ccc(OCC5CC5)nc4)C3=O)cc2c(=O)[nH]1 [Example 1-44, 6-[(3R)-3-[[6-(cyclopropylmethoxy)-3-pyridyl]oxy]-2-oxo-pyrrolidin-1-yl]-N,N-dimethyl-4-oxo-3H-quinazoline-2-carboxamide]	6.56
CN(CCO)C(=O)CN1Cc2ccc(N3CC[C@@H](Oc4ccc(OCC(F)(F)F)nc4)C3=O)cc2C1=O [Example 1-45, N-(2-hydroxyethyl)-N-methyl-2-[1-oxo-6-[(3R)-2-oxo-3-[[6-(2,2,2-trifluoroethoxy)-3-pyridyl]oxy]pyrrolidin-1-yl]isoindolin-2-yl]acetamide]	6.75
O=C(CN1Cc2ccc(N3CC[C@@H](Oc4ccc(OCC(F)(F)F)nc4)C3=O)cc2C1=O)N1CCC(O)CC1 [Example 1-46, 2-[2-(4-hydroxy-1-piperidyl)-2-oxo-ethyl]-6-[(3R)-2-oxo-3-[[6-(2,2,2-trifluoroethoxy)-3-pyridyl]oxy]pyrrolidin-1-yl]isoindolin-1-one]	6.74
O=C(CN1Cc2ccc(N3CC[C@@H](Oc4ccc(OCC(F)(F)F)nc4)C3=O)cc2C1=O)N1CC(O)C1 [Example 1-47, 2-[2-(3-hydroxyazetidin-1-yl)-2-oxo-ethyl]-6-[(3R)-2-oxo-3-[[6-(2,2,2-trifluoroethoxy)-3-pyridyl]oxy]pyrrolidin-1-yl]isoindolin-1-one]	6.66
CN(C)C(=O)CN1Cc2ccc(N3CC[C@@H](Oc4ccc(Oc5ccc(F)cc5F)nc4)C3=O)cc2C1=O [Example 1-48, 2-[6-[(3R)-3-[[6-(2,4-difluorophenoxy)-3-pyridyl]oxy]-2-oxo-pyrrolidin-1-yl]-1-oxo-isoindolin-2-yl]-N,N-dimethyl-acetamide]	7.14
CN(C)C(=O)CN1Cc2ncc(N3CC[C@@H](Oc4ccc(OCC(F)(F)F)nc4)C3=O)cc2C1=O [Example 1-49, N,N-dimethyl-2-[5-oxo-3-[(3R)-2-oxo-3-[[6-(2,2,2-trifluoroethoxy)-3-pyridyl]oxy]pyrrolidin-1-yl]-7H-pyrrolo[3,4-b]pyridin-6-yl]acetamide]	6.97
C[S+]([O-])CN1Cc2ccc(N3CC[C@@H](Oc4ccc(Oc5ccc(F)cc5)nc4)C3=O)cc2C1=O (stereo partly drawn) [Example 1-50, 6-[(3R)-3-[[6-(4-fluorophenoxy)-3-pyridyl]oxy]-2-oxo-pyrrolidin-1-yl]-2-(methylsulfinylmethyl)isoindolin-1-one]	7.19
CSCN1Cc2ccc(N3CC[C@@H](Oc4ccc(OCC5CC5)nc4)C3=O)cc2C1=O [Example 1-51, 6-[(3R)-3-[[6-(cyclopropylmethoxy)-3-pyridyl]oxy]-2-oxo-pyrrolidin-1-yl]-2-(methylsulfanylmethyl)isoindolin-1-one]	7.24

Reference: US9908868B2, “Isoindolinone compounds as GPR119 modulators for the treatment of diabetes, obesity, dyslipidemia and related disorders” (SANOFI, priority 2014, dated 2018)
